# Data reported in patent US9463193B2, “Individual 5-fluorouracile dose optimization in folfiri treatment” (INSTITUT DE CANCEROLOGIE DE L'OUEST, priority 2008, dated 2016).
# Tests used:
# [1] = human, in vivo
# Protocol: A total of 90 patients were studied. All were treated for advanced colorectal cancer following treatment including irinotecan, fluorouracil and leucovorin (FOLFIRI Regimen)
# After 200 mg/m^2 of intravenous leucovorin bolus and 400 mg/m^2 of intravenous push of 5-FU for 10 minutes, 5-FU was administered with an initial dose of 2,500 mg/m^2 every two weeks for 46-hours through a battery-operated pump, except in case of DPD significant mutation, in which case the initial dose of 5-FU in 46 hours continuous infusion was decreased by 50%.
# Irinotecan was administered before 5-FU for 2 hours and the initial dose was 180 mg/m^2 without reduction for UGT 1A1 7/7 genotype group.
# Treatment was continued until documented progression.
# Statistical analysis used the chi2 test, linear regression analysis and the Kaplan-Meier method.
# [2] = patients treated by 5-FU; cited from earlier work
# [3] = cited from earlier work
# [4] = subject with normal DPD enzymatic activity
smiles,measurement,setting,value
"O=c1[nH]cc(F)c(=O)[nH]1 [5-FU, 5-fluorouracile]","neutropenia grade 4, number observed",[1],1
same,death due to polyvisceral toxicity,[2],0.8 % of treated patients
same,severe grade 3-4 toxicity,[2],20-25%
same,very early polyvisceral toxicity,[2],5-8 % of patients
same,time to plateau of plasmatic levels after beginning of continuous infusion,[3]; 5-FU continuous infusion,about 1 hour
same,half-life in blood,"[3]; human, in vivo",very short
same,5-FU clearance variation depending on the subject,[3]; interindividual,6 to 10 factor
same,clearance multiplication from bolus administration to continued perfusion,[3]; perfusion during several hours or days,10 factor
same,administered 5-FU available for the anabolic pathway,[3]; [4],20%
same,administered 5-FU eliminated by DPD in the catabolic pathway,[3]; [4],about 80%
